Activity calls are given as the source filed them. The rule behind the calls is not given here.
Legend:
[1] = Toxicity in ip dosed mouse; format: organism-based; conditions: in vivo
[2] = Toxicity in iv dosed mouse; format: organism-based; conditions: in vivo
Mus musculus [3] = experiment: Toxicity in ip dosed mouse assessed as labored breathing and depression at LD50; format: organism-based; conditions: in vivo
Mus musculus [4] = experiment: Toxicity in ip dosed mouse assessed as death at LD50; format: organism-based; conditions: in vivo
Mus musculus [5] = experiment: Effect on behavioral activity in ip dosed mouse assessed as occurrence of mydriasis for 30 mins; format: functional, organism-based

| Structure (SMILES) | LD50 [1] [mg/kg] | LD50 [2] [mg/kg] | Activity (Mus musculus [3]) [min] | Activity (Mus musculus [4]) [min] | Activity (Mus musculus [5]) |
| --- | --- | --- | --- | --- | --- |
| COc1ccc2c(c1O)-c1c(OC)c(OC)cc3c1[C@H](C2)[N+](C)(C)CC3.[I-] | 10 |  |  |  |  |
| COc1ccc2c(c1O)-c1c(OC)c(OC)cc3c1[C@H](C2)[N+](C)(C)CC3.[Cl-] |  | 2.2 |  |  |  |
| COc1ccc2c(c1O)-c1c(O)c(OC)cc3c1[C@H](C2)[N+](C)(C)CC3 [MAGNOFLORINE] | 19.6 |  | 5 | 15 | Active |

Source: ChEMBL document CHEMBL1151387, “Constitutents of Magnolia Grandiflora. III. Toxic principle of the wood” (J Nat Prod, 1982)
